From patent publication US9145392B2, “Imidazole amines as modulators of kinase activity” (Merck Patent GmbH, priority 2011, dated 2015) come the findings set out here.

In experiment [1] the target is P70S6K (T412E mutant) (Homo sapiens (Human), UniProt P23443, T412E). Briefly: P70S6K enzyme assay. The experiment is classed as biochemical. Particulars: read-out: IC50 p70S6K. In short, it runs like this:
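Read-out is the substrate/phosphopeptide ratio from mobility-shift electrophoresis on a LabChip 3000.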

In experiment [2] the target is His-AKT (Full Length) (Homo sapiens (Human), UniProt P31749). As to the kind of experiment: AKT enzyme assay. The experiment is classed as biochemical. The following applies: read-out: IC50 AKT.
Sequence of His-AKT (Full Length) (P31749 whole entry): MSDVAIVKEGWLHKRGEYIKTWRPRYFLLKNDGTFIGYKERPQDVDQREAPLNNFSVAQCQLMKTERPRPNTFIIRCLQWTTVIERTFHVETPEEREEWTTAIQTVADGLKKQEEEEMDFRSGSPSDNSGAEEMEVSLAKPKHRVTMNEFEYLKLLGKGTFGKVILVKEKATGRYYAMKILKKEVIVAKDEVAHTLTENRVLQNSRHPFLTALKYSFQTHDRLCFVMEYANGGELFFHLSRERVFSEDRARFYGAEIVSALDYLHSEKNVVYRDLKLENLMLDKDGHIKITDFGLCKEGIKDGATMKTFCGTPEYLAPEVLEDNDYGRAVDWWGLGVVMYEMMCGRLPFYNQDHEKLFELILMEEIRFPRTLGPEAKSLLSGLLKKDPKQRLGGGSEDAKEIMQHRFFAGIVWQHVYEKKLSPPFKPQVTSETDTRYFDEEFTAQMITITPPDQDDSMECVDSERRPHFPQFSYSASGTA

Broadly, the IC50 is the point on the concentration scale where inhibition reaches its midpoint.

Sequence of P70S6K (T412E mutant) (P23443 whole entry T412E): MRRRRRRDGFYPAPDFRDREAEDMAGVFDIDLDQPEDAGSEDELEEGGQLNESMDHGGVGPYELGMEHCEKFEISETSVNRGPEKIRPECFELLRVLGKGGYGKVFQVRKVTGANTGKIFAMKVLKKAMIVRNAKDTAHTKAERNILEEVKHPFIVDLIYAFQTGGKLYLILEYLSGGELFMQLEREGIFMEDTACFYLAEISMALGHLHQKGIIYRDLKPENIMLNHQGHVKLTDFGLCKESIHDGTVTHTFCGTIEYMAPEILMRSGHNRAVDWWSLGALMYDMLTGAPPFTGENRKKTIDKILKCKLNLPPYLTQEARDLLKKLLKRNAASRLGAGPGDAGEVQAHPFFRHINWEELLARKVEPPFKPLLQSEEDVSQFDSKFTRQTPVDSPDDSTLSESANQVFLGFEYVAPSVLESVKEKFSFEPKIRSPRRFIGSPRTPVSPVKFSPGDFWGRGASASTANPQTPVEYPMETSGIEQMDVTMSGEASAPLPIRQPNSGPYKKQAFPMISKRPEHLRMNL

On to `CCc1c(N)ncnc1N1CCC(c2nc(-c3ccc(F)c(C)c3)cn2CC2CNC2)CC1` [Compound 188, 6-(4-(1-(azetidin-3-ylmethyl)-4-(4-fluoro-3-methylphenyl)-1H-imidazol-2-yl)piperidin-1-yl)-5-ethylpyrimidin-4-amine], for which the values for the half-maximal inhibitory concentration (IC50) in experiment [1] and in experiment [2] were 2.1 nM and 2.3 nM, respectively.

As for `Nc1ncnc(N2CCC(c3nc(-c4cccc(C(F)(F)F)c4)c[nH]3)CC2)c1Br` [Compound 3, 5-Bromo-6-{4-[4-(3-trifluoromethyl-phenyl)-1H-imidazol-2-yl]-piperidin-1-yl}-pyrimidin-4-ylamine], the IC50 was 6.2 nM in experiment [1] and 1700 nM in experiment [2].

`C=Cc1c(N)ncnc1N1CCC(c2nc(-c3ccc(C(F)(F)F)cc3)cn2CCN2CCCC2)CC1` [Compound 269]: the figures for the IC50 in experiment [1] and in experiment [2] were 10 nM and 190 nM, respectively.

`COc1c(N)ncnc1N1CCC(c2nc(-c3ccc(F)c(C)c3)cn2CC2CNC2)CC1` [Compound 184, 6-(4-(1-(azetidin-3-ylmethyl)-4-(4-fluoro-3-methylphenyl)-1H-imidazol-2-yl)piperidin-1-yl)-5-methoxypyrimidin-4-amine]: the IC50 in experiment [1] was found to be 0.26 nM; in experiment [2], 2.3 nM.

Turning to `CC(C)c1cc(-c2cn(CCN3CCC3)c(C3CCN(c4ncnc(N)c4Cl)CC3)n2)ccn1` [Compound 180, 6-(4-(1-(2-(azetidin-1-yl)ethyl)-4-(2-isopropylpyridin-4-yl)-1H-imidazol-2-yl)piperidin-1-yl)-5-chloropyrimidin-4-amine], the IC50 came out at 1.1 nM in experiment [1] and 2.4 nM in experiment [2].

Turning to `Nc1ncnc(N2CCC(c3nc(-c4ccc(F)c(C(F)(F)F)c4)cn3CCN3CCCCC3)CC2)c1-c1cccc(F)c1` [Compound 64], the figures for the IC50 in experiment [1] and in experiment [2] were 8.7 nM and 85 nM, respectively.

`Cc1ccc(-c2cn(CCN3CCC3)c(C3CCN(c4ncnc(N)c4C(N)=O)CC3)n2)cc1C(F)(F)F` [Compound 340]: the 50% inhibitory concentration (IC50) in experiment [1] came to 4 nM; in experiment [2] it was 420 nM.

On to `CC(C)Oc1c(N)ncnc1N1CCC(c2nc(-c3ccc(F)c(C(F)(F)F)c3)cn2CCN2CCC2)CC1` [Compound 96, 6-(4-(1-(2-(azetidin-1-yl)ethyl)-4-(4-fluoro-3-(trifluoromethyl)phenyl)-1H-imidazol-2-yl)piperidin-1-yl)-5-isopropoxypyrimidin-4-amine], for which the IC50 in experiment [1] came to 5.3 nM; in experiment [2] it was 7.9 nM.

Take `Nc1cc(N2CCC(c3nc(-c4ccc(F)c(C(F)(F)F)c4)cn3CCN3CCCCC3)CC2)ncn1` [Compound 66]: the IC50 in experiment [1] is 110 nM; in experiment [2], 410 nM.

For `CNCCn1cc(-c2ccc(F)c(C(F)(F)F)c2)nc1C1CCN(c2ncnc(N)c2C(N)=O)CC1` [Compound 376, 4-Amino-6-{4-[4-(4-fluoro-3-trifluoromethyl-phenyl)-1-(2-methylamino-ethyl)-1H-imidazol-2-yl]-piperidin-1-yl}-pyrimidine-5-carboxylic acid amide], the results for the half-maximal inhibitory concentration (IC50) in experiment [1] and in experiment [2] were 3.4 nM and 33 nM, respectively.

Regarding `NC(=O)c1c(N)ncnc1N1CCC(c2nc(-c3ccc(F)c(C(F)(F)F)c3)cn2C2CNC2)CC1` [Compound 143, 4-amino-6-(4-(1-(azetidin-3-yl)-4-(4-fluoro-3-(trifluoromethyl)phenyl)-1H-imidazol-2-yl)piperidin-1-yl)pyrimidine-5-carboxamide], the figures for the IC50 in experiment [1] and in experiment [2] were 16 nM and 670 nM, respectively.

On to `N#Cc1c(N)ncnc1N1CCC(c2nc(-c3ccc(F)c(F)c3)cn2CCN2CCC2)CC1` [Compound 313], for which the results for the IC50 in experiment [1] and in experiment [2] were 1.6 nM and 9.3 nM, respectively.

As to `Nc1ncnc(N2CCC(c3nc(-c4ccnc(C(F)(F)F)c4)cn3CCNC3CC3)CC2)c1Cl` [Compound 173, 5-chloro-6-(4-(1-(2-(cyclopropylamino)ethyl)-4-(2-(trifluoromethyl)pyridin-4-yl)-1H-imidazol-2-yl)piperidin-1-yl)pyrimidin-4-amine], the IC50 was 2.8 nM in experiment [1] and 3.6 nM in experiment [2].

On to `Nc1ncnc(N2CCC(c3nc(-c4ccc(C(F)(F)F)cc4)cn3CCN3CCCC3)CC2)c1Br` [Compound 265], for which the 50% inhibitory concentration (IC50) in experiment [1] came to 6.2 nM; in experiment [2], 110 nM.

Consider `Cc1cc(-c2cn(CCN(C)C)c(C3CCN(c4ncnc(N)c4OC(C)C)CC3)n2)ccc1F` [Compound 294], for which the IC50 was determined as 1.3 nM in experiment [1] and 1.9 nM in experiment [2].

For the compound `NC(=O)c1c(N)ncnc1N1CCC(c2nc(-c3ccc(F)c(C(F)(F)F)c3)cn2C2CCNC2)CC1` (centres unmarked) [Compound 138, 4-amino-6-(4-(4-(4-fluoro-3-(trifluoromethyl)phenyl)-1-(pyrrolidin-3-yl)-1H-imidazol-2-yl)piperidin-1-yl)pyrimidine-5-carboxamide], the 50% inhibitory concentration (IC50) in experiment [1] was determined as 1.7 nM; in experiment [2], 100 nM.

Consider `COCCN(C)CCn1cc(-c2ccc(F)c(C(F)(F)F)c2)nc1C1CCN(c2ncnc(N)c2C#N)CC1` [Compound 363, 4-Amino-6-[4-(4-(4-fluoro-3-trifluoromethyl-phenyl)-1-{2-[(2-methoxy-ethyl)-methyl-amino]-ethyl}-1H-imidazol-2-yl)-piperidin-1-yl]-pyrimidine-5-carbonitrile], for which the IC50 was determined as 3.4 nM in experiment [1] and 26 nM in experiment [2].

On to `Cc1cc(-c2cn(CC3CNC3)c(C3CCC(c4ncnc(N)c4C(C)C)CC3)n2)ccc1F` (centres unmarked) [Compound 194, 6-(4-(1-(azetidin-3-ylmethyl)-4-(4-fluoro-3-methylphenyl)-1H-imidazol-2-yl)cyclohexyl)-5-isopropylpyrimidin-4-amine], for which the values for the half-maximal inhibitory concentration (IC50) in experiment [1] and in experiment [2] were 3.4 nM and 16 nM, respectively.

Turning to `CCN(CC)CCn1cc(-c2ccc(F)c(C)c2)nc1C1CCN(c2ncnc(N)c2C(N)=O)CC1` [Compound 349], the half-inhibitory concentration (IC50) turned out to be 25 nM in experiment [1] and 55 nM in experiment [2].

With `CCc1c(N)ncnc1N1CCC(c2nc(-c3cccc(F)c3)cn2CCN2CCC2)CC1` [Compound 278], the values for the 50% inhibitory concentration (IC50) in experiment [1] and in experiment [2] were 4.6 nM and 79.5 nM, respectively.

In the case of `CCN(C)Cc1c(N)ncnc1N1CCC(c2nc(-c3ccc(F)c(C(F)(F)F)c3)cn2CCN(C)C)CC1` [Compound 95, 6-(4-(1-(2-(dimethylamino)ethyl)-4-(4-fluoro-3-(trifluoromethyl)phenyl)-1H-imidazol-2-yl)piperidin-1-yl)-5-((ethyl(methyl)amino)methyl)pyrimidin-4-amine], the IC50 in experiment [1] was determined as 47 nM; in experiment [2], 520 nM.

Regarding `CCOc1c(N)ncnc1N1CCC(c2nc(-c3ccc(F)c(C)c3)cn2CCN(CC)CC)CC1` [Compound 303], the 50% inhibitory concentration (IC50) in experiment [1] was found to be 2.4 nM; in experiment [2], 0.8 nM.

For the compound `CCc1c(N)ncnc1N1CCC(c2nc(-c3ccc(F)c(C)c3)cn2CCN2CCCC2)CC1` [Compound 297], the IC50 in experiment [1] stood at 3.9 nM; in experiment [2], 6.6 nM.

Regarding `CCc1c(N)ncnc1N1CCC(c2nc(-c3ccc(F)c(C(F)(F)F)c3)cn2CCN2CCC2)CC1` [Compound 230], the concentration for half-maximal inhibition (IC50) in experiment [1] came to 2.1 nM; in experiment [2] it was 4.1 nM.

Consider `COc1c(N)ncnc1N1CCC(c2nc(-c3ccc(F)c(C(F)(F)F)c3)cn2C)CC1` [Compound 9, 6-{4-[4-(4-Fluoro-3-trifluoromethyl-phenyl)-1-methyl-1H-imidazol-2-yl]-piperidin-1-yl}-5-methoxy-pyrimidin-4-ylamine], for which the half-inhibitory concentration (IC50) in experiment [1] was determined as 2.1 nM; in experiment [2] it was 440 nM.

For the compound `CCc1c(N)ncnc1N1CCC(c2nc(-c3ccc(F)c(C(F)(F)F)c3)cn2CCN(C)C)CC1` [Compound 82, 6-(4-(1-(2-(Dimethylamino)ethyl)-4-(4-fluoro-3-(trifluoromethyl)phenyl)-1H-imidazol-2-yl)piperidin-1-yl)-5-ethylpyrimidin-4-amine], the IC50 in experiment [1] was found to be 3.7 nM; in experiment [2], 12 nM.

For the compound `CNCCn1cc(-c2ccnc(C(F)(F)F)c2)nc1C1CCN(c2ncnc(N)c2C2C=NOC2)CC1` (centres unmarked) [Compound 170, 5-(4,5-dihydroisoxazol-4-yl)-6-(4-(1-(2-(methylamino)ethyl)-4-(2-(trifluoromethyl)pyridin-4-yl)-1H-imidazol-2-yl)piperidin-1-yl)pyrimidin-4-amine], the IC50 in experiment [1] was determined as 170 nM; in experiment [2], 120 nM.

With `CC(C)CNCCn1cc(-c2ccc(F)c(C(F)(F)F)c2)nc1C1CCN(c2ncnc(N)c2C#N)CC1` [Compound 372, 4-Amino-6-{4-[4-(4-fluoro-3-trifluoromethyl-phenyl)-1-(2-isobutylamino-ethyl)-1H-imidazol-2-yl]-piperidin-1-yl}-pyrimidine-5-carbonitrile], the results for the IC50 in experiment [1] and in experiment [2] were 0.2 nM and 0.7 nM, respectively.

In the case of `CCc1c(N)ncnc1N1CCC(c2nc(-c3ccc(F)c(C(F)(F)F)c3)cn2CCN2CCC(F)(F)C2)CC1` [Compound 275], the figures for the IC50 in experiment [1] and in experiment [2] were 2.8 nM and 430 nM, respectively.

Take `CCc1cc(-c2cn(CCN3CCC3)c(C3CCN(c4ncnc(N)c4C(N)=O)CC3)n2)ccn1` [Compound 341]: the values for the IC50 in experiment [1] and in experiment [2] were 11 nM and 450 nM, respectively.

As for `COc1c(N)ncnc1N1CCC(c2nc(-c3ccnc(C(F)(F)F)c3)cn2CCN2CCC2)CC1` [Compound 115, 6-(4-(1-(2-(azetidin-1-yl)ethyl)-4-(2-(trifluoromethyl)pyridin-4-yl)-1H-imidazol-2-yl)piperidin-1-yl)-5-methoxypyrimidin-4-amine], the IC50 is 2.8 nM in experiment [1] and 21 nM in experiment [2].

Turning to `CC(C)CNCCn1cc(-c2ccc(F)c(C(F)(F)F)c2)nc1C1CCN(c2ncnc(N)c2C(N)=O)CC1` [Compound 373, 4-Amino-6-{4-[4-(4-fluoro-3-trifluoromethyl-phenyl)-1-(2-isobutylamino-ethyl)-1H-imidazol-2-yl]-piperidin-1-yl}-pyrimidine-5-carboxylic acid amide], the results for the 50% inhibitory concentration (IC50) in experiment [1] and in experiment [2] were 2.9 nM and 12 nM, respectively.

In the case of `CCc1c(N)ncnc1N1CCC(c2nc(-c3ccc(F)c(F)c3)cn2CCN2CCC2)CC1` [Compound 282], the IC50 amounted to 3.8 nM in experiment [1] and 24 nM in experiment [2].

As for `COc1ccc(-c2cn(CCN3CCC3)c(C3CCN(c4ncnc(N)c4C(N)=O)CC3)n2)cc1Cl` [Compound 347], the IC50 in experiment [1] was found to be 87 nM; in experiment [2] it was 990 nM.
